The values below come from ChEMBL document CHEMBL1201862, “PubChem BioAssay data set” (2004).

The target in assay [1] is T1, Fatty acid synthase (Homo sapiens, UniProt P49327). Description: FAS thioesterase domain inhibitors, dose response, biochemical, endpoint fluorescence intensity, uHTS hits (AID 624327).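 Further: fluorescence from hydrolysis of an O-methyl fluorescein acyl ester substrate by the enzyme.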 It counts as functional.
Assay [2] deals with T1, Fatty acid synthase. Description: FAS thioesterase domain inhibitors, dose response, biochemical, kinetic fluorescence intensity (AID 624326).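 Further: rate of fluorescence rise from hydrolysis of a fluorogenic O-methyl fluorescein ester substrate.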 It counts as functional.
In assay [3] the target is T2, Replicative DNA helicase DnaB (Mycobacterium tuberculosis, UniProt P9WMR3).
T2 sequence (P9WMR3 whole entry): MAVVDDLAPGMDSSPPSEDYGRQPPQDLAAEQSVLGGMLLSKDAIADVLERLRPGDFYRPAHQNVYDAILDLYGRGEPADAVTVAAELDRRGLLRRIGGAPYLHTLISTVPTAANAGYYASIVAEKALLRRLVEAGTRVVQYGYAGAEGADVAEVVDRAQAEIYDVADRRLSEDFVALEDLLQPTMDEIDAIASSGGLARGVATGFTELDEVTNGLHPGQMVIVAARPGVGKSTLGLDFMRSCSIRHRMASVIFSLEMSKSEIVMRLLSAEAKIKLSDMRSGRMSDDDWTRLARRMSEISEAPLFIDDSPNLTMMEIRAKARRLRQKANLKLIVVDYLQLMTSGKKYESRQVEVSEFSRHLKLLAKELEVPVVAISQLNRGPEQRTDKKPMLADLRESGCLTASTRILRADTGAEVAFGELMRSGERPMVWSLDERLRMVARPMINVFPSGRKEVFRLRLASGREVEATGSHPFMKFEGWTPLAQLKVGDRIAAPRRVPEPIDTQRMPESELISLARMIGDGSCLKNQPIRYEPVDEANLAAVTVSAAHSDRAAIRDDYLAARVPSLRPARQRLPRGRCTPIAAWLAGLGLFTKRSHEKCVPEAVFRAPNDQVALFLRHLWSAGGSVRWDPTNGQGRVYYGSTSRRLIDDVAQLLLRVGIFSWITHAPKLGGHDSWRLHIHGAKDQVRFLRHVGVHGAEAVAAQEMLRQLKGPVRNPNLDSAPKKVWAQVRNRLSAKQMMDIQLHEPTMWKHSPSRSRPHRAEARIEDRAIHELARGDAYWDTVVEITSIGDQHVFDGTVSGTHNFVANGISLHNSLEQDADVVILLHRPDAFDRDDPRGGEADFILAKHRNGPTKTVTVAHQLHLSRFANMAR
Description: DnaB intein splicing inhibitors, dose response, biochemical, cell-free fluorescence (AID 449749). The assay is classed as functional.

For another assay, the target named is T3, Protein RecA (Mycobacterium tuberculosis, UniProt P9WHJ3).
T3 sequence (P9WHJ3 whole entry): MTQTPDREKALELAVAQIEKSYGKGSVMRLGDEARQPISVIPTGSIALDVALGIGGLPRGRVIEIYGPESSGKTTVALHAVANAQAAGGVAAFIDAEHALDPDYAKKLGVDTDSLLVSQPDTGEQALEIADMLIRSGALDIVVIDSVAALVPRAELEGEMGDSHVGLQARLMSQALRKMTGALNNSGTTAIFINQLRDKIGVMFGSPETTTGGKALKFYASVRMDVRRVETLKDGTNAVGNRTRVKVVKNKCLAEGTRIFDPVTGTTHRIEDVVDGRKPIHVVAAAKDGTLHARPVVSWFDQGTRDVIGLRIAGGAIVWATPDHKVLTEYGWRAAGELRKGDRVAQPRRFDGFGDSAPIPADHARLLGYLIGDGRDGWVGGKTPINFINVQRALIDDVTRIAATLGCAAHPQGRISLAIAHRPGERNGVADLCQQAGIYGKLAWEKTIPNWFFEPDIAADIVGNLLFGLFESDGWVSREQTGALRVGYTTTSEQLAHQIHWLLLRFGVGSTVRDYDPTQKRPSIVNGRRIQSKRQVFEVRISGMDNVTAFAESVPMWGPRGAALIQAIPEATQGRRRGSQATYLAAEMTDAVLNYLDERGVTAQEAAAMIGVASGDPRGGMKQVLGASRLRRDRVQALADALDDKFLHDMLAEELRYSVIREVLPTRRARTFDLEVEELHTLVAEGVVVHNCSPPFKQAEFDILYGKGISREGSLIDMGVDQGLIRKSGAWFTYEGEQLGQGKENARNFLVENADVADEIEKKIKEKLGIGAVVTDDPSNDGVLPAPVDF
Description: Fluorescence Cell-Free Homogeneous Dose Retest to Identify Inhibitors of RecA-Intein Splicing Activity. [Related pubchem assays (depositor defined):AID2097, AID2223, AID489010, AID492950]. It counts as functional.

For assay [4], the target named is T4, Apoptotic protease-activating factor 1 (Homo sapiens, UniProt O14727).
T4 sequence (O14727 whole entry): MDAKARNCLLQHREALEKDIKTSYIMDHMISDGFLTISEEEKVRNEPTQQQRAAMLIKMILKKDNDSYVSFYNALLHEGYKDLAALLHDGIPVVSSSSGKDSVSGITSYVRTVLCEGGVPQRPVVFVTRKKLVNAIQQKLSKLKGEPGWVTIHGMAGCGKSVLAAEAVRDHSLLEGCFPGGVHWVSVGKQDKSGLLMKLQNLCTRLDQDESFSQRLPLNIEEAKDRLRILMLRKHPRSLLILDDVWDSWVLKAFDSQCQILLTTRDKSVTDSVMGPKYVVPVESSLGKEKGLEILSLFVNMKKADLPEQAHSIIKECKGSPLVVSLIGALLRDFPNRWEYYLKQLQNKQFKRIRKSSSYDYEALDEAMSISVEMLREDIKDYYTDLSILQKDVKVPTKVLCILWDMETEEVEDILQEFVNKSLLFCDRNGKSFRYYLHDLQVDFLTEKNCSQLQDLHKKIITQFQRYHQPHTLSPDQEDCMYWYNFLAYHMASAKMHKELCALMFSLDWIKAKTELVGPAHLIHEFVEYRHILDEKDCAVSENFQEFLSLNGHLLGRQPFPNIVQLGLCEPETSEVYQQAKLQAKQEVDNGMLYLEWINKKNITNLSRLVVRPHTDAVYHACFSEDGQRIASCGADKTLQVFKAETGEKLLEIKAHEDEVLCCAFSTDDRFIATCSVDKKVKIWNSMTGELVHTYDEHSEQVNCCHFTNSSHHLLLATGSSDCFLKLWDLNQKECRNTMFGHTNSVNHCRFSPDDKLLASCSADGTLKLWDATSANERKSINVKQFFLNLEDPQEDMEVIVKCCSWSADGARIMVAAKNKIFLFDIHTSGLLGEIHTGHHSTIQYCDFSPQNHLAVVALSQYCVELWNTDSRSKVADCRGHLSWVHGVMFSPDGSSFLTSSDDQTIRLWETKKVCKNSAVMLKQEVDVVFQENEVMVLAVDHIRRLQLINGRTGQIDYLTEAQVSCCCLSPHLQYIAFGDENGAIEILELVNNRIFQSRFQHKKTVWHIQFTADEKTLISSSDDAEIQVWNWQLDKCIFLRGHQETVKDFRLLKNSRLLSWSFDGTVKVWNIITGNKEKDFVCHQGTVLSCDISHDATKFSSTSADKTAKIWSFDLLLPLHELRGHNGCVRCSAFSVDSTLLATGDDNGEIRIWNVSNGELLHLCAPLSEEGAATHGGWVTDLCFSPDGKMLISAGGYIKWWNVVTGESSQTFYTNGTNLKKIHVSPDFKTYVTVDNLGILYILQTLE
The assay is classed as functional.

Assay [5] concerns the target T5, Ubiquitin-conjugating enzyme E2 N (Homo sapiens, UniProt P61088).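 Further: Dose-response confirmation in a TR-FRET assay detecting UBC13-driven polyubiquitin chain formation, inhibition measured.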
T5 sequence (P61088 whole entry): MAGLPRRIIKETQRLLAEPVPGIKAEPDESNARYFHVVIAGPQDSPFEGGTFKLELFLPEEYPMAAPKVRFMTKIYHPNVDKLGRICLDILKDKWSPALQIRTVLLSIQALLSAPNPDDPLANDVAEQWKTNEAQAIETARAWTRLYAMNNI
The assay is classed as functional.

The test system of the next assay is P388. Description: cells. The assay is classed as functional. As to conditions: Mus musculus.
The next assay addresses Paired box protein Pax-8 (Homo sapiens, UniProt Q06710). Description: inhibitors of PAX8-driven TPO luciferase reporter, dose response, RMG-I cells, cherry-pick (AID 687027).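 Further: luciferase reporter driven by Pax8 target thyroperoxidase promoter measured by SteadyGlo luminescence.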 It counts as functional, cell-based. Background: Reporter assays use an easily measured gene product as a stand-in for the process of interest.
The next assay concerns P388/ADR. Description: cells. It counts as functional. As to conditions: Mus musculus.
Another assay concerns SN12K1. Description: cells. The assay is classed as functional. As to conditions: Homo sapiens.

Activity calls are given as the source filed them.

By IC50 is commonly meant the midpoint of a concentration-inhibition curve. In general, AC50 refers to the concentration at which the activity in the assay is half-maximal. For orientation: EC50 means the concentration at which the effect is half-maximal. As usually defined, the GI50 is the concentration giving 50% growth inhibition.

T1 sequence (P49327 whole entry, the tested form may be a part): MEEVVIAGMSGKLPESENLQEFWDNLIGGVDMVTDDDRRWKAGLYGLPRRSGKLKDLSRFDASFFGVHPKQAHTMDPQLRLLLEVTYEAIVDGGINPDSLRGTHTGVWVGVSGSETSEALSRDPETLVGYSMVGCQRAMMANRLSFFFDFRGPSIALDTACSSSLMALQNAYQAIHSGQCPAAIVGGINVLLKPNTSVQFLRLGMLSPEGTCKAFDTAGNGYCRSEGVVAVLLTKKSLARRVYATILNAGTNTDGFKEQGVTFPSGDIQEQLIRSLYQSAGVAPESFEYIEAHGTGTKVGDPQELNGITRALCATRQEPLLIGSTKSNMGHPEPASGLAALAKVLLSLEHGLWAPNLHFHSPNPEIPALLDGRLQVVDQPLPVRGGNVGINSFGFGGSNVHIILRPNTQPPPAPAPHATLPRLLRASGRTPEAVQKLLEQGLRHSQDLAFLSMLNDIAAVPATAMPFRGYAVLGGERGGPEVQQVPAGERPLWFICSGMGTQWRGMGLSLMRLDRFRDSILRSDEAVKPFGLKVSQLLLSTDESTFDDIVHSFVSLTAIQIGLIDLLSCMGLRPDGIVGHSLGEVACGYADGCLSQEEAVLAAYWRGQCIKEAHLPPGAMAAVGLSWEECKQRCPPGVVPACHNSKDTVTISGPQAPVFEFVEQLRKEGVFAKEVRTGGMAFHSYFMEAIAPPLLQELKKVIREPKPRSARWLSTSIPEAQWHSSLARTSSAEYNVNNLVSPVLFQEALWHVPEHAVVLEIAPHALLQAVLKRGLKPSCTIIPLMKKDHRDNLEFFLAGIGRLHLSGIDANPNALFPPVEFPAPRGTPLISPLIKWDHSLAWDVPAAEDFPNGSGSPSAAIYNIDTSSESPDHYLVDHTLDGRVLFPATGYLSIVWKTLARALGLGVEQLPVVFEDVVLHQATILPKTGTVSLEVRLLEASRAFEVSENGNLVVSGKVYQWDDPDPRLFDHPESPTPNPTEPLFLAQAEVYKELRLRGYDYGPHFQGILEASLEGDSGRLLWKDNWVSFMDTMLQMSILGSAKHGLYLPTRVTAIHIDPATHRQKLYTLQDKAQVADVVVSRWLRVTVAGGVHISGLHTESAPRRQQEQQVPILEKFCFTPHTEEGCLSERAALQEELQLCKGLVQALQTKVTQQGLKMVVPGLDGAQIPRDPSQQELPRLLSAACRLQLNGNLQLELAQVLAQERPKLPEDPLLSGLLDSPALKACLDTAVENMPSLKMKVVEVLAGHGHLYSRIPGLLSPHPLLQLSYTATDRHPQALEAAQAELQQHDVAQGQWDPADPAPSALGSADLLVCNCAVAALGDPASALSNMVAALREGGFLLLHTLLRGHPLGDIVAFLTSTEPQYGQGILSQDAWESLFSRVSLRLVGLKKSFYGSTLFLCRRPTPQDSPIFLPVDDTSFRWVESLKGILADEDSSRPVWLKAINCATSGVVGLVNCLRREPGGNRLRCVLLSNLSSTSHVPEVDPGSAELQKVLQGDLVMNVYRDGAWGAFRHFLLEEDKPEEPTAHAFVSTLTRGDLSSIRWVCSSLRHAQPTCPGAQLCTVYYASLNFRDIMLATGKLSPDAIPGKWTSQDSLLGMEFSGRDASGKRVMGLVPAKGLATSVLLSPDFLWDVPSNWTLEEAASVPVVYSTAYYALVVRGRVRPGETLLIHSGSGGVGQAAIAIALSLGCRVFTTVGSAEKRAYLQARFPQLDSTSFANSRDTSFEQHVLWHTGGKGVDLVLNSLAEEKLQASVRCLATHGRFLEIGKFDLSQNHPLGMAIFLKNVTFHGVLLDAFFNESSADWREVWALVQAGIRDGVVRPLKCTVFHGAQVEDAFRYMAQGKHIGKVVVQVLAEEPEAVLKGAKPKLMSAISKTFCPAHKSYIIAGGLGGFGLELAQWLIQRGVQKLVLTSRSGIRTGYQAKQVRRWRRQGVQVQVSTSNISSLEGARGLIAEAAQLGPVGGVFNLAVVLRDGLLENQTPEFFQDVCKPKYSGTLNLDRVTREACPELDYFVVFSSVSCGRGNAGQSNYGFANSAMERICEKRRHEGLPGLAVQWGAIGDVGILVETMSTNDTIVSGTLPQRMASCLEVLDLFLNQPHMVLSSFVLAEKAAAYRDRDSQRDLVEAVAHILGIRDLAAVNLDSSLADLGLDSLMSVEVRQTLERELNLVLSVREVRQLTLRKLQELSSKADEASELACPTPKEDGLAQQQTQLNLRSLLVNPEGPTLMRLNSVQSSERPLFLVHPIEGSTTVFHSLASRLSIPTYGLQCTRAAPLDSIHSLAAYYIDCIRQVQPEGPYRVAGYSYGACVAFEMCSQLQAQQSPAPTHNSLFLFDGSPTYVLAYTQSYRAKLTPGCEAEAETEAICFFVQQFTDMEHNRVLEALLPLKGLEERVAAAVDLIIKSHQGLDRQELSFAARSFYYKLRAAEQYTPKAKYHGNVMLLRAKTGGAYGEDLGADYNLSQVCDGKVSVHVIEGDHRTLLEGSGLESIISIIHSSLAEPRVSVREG
Paired box protein Pax-8, sequence (Q06710 whole entry): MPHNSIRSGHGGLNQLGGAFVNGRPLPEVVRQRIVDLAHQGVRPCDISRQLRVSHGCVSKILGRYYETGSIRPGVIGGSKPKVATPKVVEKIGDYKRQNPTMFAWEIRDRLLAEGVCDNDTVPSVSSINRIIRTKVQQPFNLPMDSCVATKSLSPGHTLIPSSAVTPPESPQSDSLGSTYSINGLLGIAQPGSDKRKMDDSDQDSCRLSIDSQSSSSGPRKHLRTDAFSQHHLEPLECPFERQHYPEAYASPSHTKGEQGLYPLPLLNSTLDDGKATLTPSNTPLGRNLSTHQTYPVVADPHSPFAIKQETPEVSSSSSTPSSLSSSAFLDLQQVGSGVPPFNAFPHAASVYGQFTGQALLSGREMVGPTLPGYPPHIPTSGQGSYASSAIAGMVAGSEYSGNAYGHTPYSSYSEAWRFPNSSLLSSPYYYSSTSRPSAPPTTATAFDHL

Turning to `C[C@H](NC(=O)c1[nH]cnc1C(=O)N[C@@H](CCCCNC(=O)OC(C)(C)C)C(=O)OC(C)(C)C)C(=O)OC(C)(C)C`, the values for the IC50 at Fatty acid synthase [1] and on Fatty acid synthase [2] were 2.95 µM (active) and 2.6 µM (active), respectively.

As for `CC1=NN(c2ccccc2)C(=O)C1=C(C)C`, the AC50 in assay [3] is 5.6 µM (active). Also, at Protein RecA, the EC50 was 2.46 µM (active).

As for `O=C(NCc1ccc2c(c1)OCO2)c1ccc(C2SCC(=O)N2Cc2ccco2)cc1` (stereo not given), the IC50 at Fatty acid synthase [1] is 8.5 µM (active); on Fatty acid synthase [2], 5.95 µM (active).

On to `CCCc1n[nH]c(O)c1C(c1ccc(Cl)cc1)C(C#N)C#N` (stereo not given), for which, in [3], the AC50 is 8.44 µM (active). Further, the EC50 on Protein RecA is 4.14 µM (active).

On to `CCOC(=O)C1CCCN(c2nc3c(C)cccn3c(=O)c2/C=C(\C#N)C(=O)NCc2ccco2)C1` (stereo not given), for which the values for the IC50 at Fatty acid synthase [1] and on Fatty acid synthase [2] were 16.2 µM (active) and 8.23 µM (active), respectively.

Consider `COC(=O)C1=C(C)N(Cc2ccccc2)C(NCCc2c[nH]c3ccccc23)=N[C@H]1c1cccc(C(F)(F)F)c1`, for which the values for the IC50 in assay [4] and in [5] were 71 µM (active) and > 20 µM (inactive), respectively.

`COc1ccccc1OCCNC(=O)c1cccc(S(=O)(=O)N2CCN(Cc3ccccc3)CC2)c1`: the IC50 is > 100 µM (inactive) in assay [4] and > 20 µM (inactive) in assay [5].

For `COc1ccc2[nH]c3c(c2c1)CCN1C(=O)C(CC(=O)NC(C)(C)C)C[C@H](C(=O)N2CCOCC2)[C@@]31CCC1CCCC1` (stereo not given in full), the IC50 on Fatty acid synthase [1] is 8.32 µM (active); at Fatty acid synthase [2], 7.48 µM (active).

In the case of `O=C(c1ccc(N2CCN(CCO)CC2)nc1)N1CCOCC1`, in [3], the AC50 was > 380 µM (inactive). Further, on Protein RecA, the EC50 was > 380 µM (inactive).

In the case of `Cc1sc(N2CCN(S(=O)(=O)c3ccc4c(c3)NC(=O)CO4)CC2)nc1-c1ccccc1`, the figures for the IC50 on Fatty acid synthase [1] and on Fatty acid synthase [2] were 4.15 µM (active) and 4.04 µM (active), respectively.

Consider `C=C(C)c1nc(Oc2ccccc2)nc(Oc2ccccc2)n1`, for which the GI50 with P388 is 1.17 µM (inactive); in the assay with P388/ADR, 0.824 µM (active); with SN12K1, 3.35 µM (inactive). For the same compound, on Paired box protein Pax-8, the AC50 is 3.04 µM (active).

As to `COc1cc(/C=C/C(=O)Oc2ccc(NC(C)=O)cc2)ccc1C(=O)O/C=C/c1ccccc1`, the GI50 with P388 is 18.8 µM (inactive); in the assay with P388/ADR, 8.02 µM (inactive); with SN12K1 it was > 100 µM (inactive).

For the compound `C=C1C(C)C2C(Cc3ccccc3)NC(=O)C23OC(=O)/C=C\CC(=O)CCC(C)C/C=C/C3C1O` (stereo not given), the GI50 was 0.0552 µM (active) in the assay on P388, 0.224 µM (active) in the assay on P388/ADR and 0.444 µM (active) in the assay with SN12K1.

With `O=C1Sc2sc(=S)sc2SC1c1ccccc1` (stereo not given), the values for the GI50 with P388, in the assay with P388/ADR and in the assay with SN12K1 were 22.5 µM (inactive), 23.7 µM (inactive) and 25.1 µM (inactive), respectively.

As to `C/C(CC(=O)Nc1cc(C)ccn1)=N\NC(=O)c1ccncc1`, the AC50 in assay [3] was 7.32 µM (active). For the same compound, on Protein RecA, the EC50 is 4.03 µM (active).

For `CN(C)c1cc(N/N=C/c2ccccc2C(F)(F)F)nc(N(C)C)n1`, in [4], the IC50 is 5.07 µM (active).

Turning to `Cc1cccc(OCC(=O)N/N=C/c2cc([N+](=O)[O-])ccc2N2CCOCC2)c1`, the figures for the IC50 on Fatty acid synthase [1] and on Fatty acid synthase [2] were 9.22 µM (active) and 8.84 µM (active), respectively.

Turning to `COc1cc(C(=O)NCC(=O)N/N=C/c2cccc(OC(=O)c3ccco3)c2)cc(OC)c1OC`, the half-maximal activity concentration (AC50) in assay [3] was 36 µM (active). For the same compound, at Protein RecA, the EC50 is 16.6 µM (active).

Take `CC(=O)OC1CCC2(C)C(CCC3C2CCC2(C)C(c4ccc(=O)oc4)C(OC(C)=O)CC32O)C1` (stereo not given): the GI50 is 14.6 µM (inactive) in the assay with P388, 40.9 µM (inactive) in the assay on P388/ADR and 0.0144 µM (active) in the assay with SN12K1.

On to `CNC=O`, for which the GI50 with P388 is > 5620 µM (inactive); in the assay with P388/ADR it was > 10000 µM (inactive); with SN12K1, > 10000 µM (inactive).

As for `N[C@H](C(=O)O)[C@@H]1CC(Cl)=NO1` [ACIVICIN], the GI50 in the assay with P388 is 0.242 µM (active); in the assay on P388/ADR it was 0.471 µM (active); with SN12K1, 1.13 µM (inactive).

For `CO[C@H]1Nc2c(ccc(C)c2O)C(=O)N2C=C(/C=C/C(N)=O)C[C@@H]12` [ANTHRAMYCIN METHYL ETHER], the values for the 50% growth inhibitory concentration (GI50) with P388, with P388/ADR and in the assay on SN12K1 were 0.0436 µM (active), 0.101 µM (active) and 0.0197 µM (active), respectively.

`OC[C@H]1O[C@@H](n2cnc3cncnc32)[C@H](O)[C@@H]1O` [NEBULARINE]: the GI50 in the assay on P388 was 0.321 µM (active); in the assay on P388/ADR it was 0.305 µM (active); in the assay with SN12K1, 1.48 µM (inactive).
